# Test results as given in PMC12239973 (Science Advances, 2025).
# Entries after “also recorded” stand apart in the source; their conditions may differ. Where two headings read alike, the source gives them in different places.
# B1: Sutimlimab: monoclonal antibody that binds C1s; classical pathway inhibitor (antibody, chains of the INN, looked up, V domains shown)
# VH: EVQLVESGGGLVKPGGSLRLSCAASGFTFSNYAMSWVRQAPGKGLEWVATISSGGSHTYYLDSVKGRFTISRDNSKNTLYLQMNSLRAEDTALYYCARLFTGYAMDYWGQGTLVTVSS
# VL: QIVLTQSPATLSLSPGERATMSCTASSSVSSSYLHWYQQKPGKAPKLWIYSTSNLASGVPSRFSGSGSGTDYTLTISSLQPEDFATYYCHQYYRLPPITFGQGTKLEIK
# Experiments:
# human C5a release = assay: C5a release in the fluid phase of human serum with nanoparticles, ELISA; type: biochemical; settings: for inhibition of C5a release: 100 μM; for IC50: read-out: C5a, IC50
# C3 [1] = assay: C3 opsonization of SPIO NWs in rat serum in vitro; type: biochemical, Sprague-Dawley rats; settings: 100 μM
# C3 [2] = assay: C3 opsonization of SPIO NWs in dog sera in vitro; type: biochemical; settings: 10 μM, five breeds
# C3 [3] = assay: C3 opsonization of SPIO NWs in mouse serum in vitro; type: biochemical, BALB/c mice
# human C3 deposition = assay: C3 deposition on nanoparticles in human serum, C3 dot-blot immunoassay; type: biochemical; settings: for IC50: read-out: C3, IC50, healthy donor serum
# C3d = C3d deposition on PLD in plasma of donors with high anti-PEG titers; type: biochemical, human; settings: two donors with high anti-PEG titers; EDTA 10 mM; EGTA/Mg2+ 10 mM; sutimlimab 200 μg/ml; iptacopan 10 μM
# C3 [4] = type: biochemical, human; settings: for inhibition of C3 opsonization of PLD, in words: two donors with top 10th percentile anti-PEG IgG/IgM, EGTA/Mg2+ 10 mM
# Beagle dogs = assay: Blood pressure in anesthetized dogs after bolus injection of SPIO NWs; type: in vivo; settings: iptacopan IV 0.4285 mg/kg
# dog C3 = assay: In vivo C3 opsonization of SPIO NWs in dogs; settings: Beagle dogs; iptacopan 0.43 mg/kg IV; 30 min postinjection
# mouse C3 = assay: In vivo C3 opsonization of SPIO NWs in mice; parameters: species or system BALB/c mice; settings: IV iptacopan, 5 min after the injection
# blood leukocytes = assay: Blood leukocyte uptake of bolus-injected SPIO NWs in rats; type: in vivo, Sprague-Dawley rats
# [5] = tested on: granulocytes and monocytes; type: cell-based, human; settings: CR2-CR1 10 nM, iptacopan 20 μM; for efficacy on uptake across donors, in words: liposomes and LNPs, five donors
# granulocytes = assay: Blood leukocyte uptake of bolus-injected SPIO NWs in dogs; type: in vivo; settings: Beagle dogs; iptacopan 0.43 mg/kg IV coinjected with SPIO NWs 6.6 mg/kg; 30 and 60 min
# rat C3 = assay: In vivo C3 opsonization of SPIO NWs in rats; parameters: species or system Sprague-Dawley rats; settings: high dose iptacopan 0.99 mg/kg, 60 min postinjection
# Sprague-Dawley rats = assay: Rearing behavior of rats after bolus injection of SPIO NWs; type: in vivo
# [6] = tested on: granulocytes, monocytes, lymphocytes; assay: Blood leukocyte uptake of bolus-injected SPIO NWs in mice; type: in vivo, BALB/c mice
# C3 convertases = settings: mice and dogs; cited from earlier work
# C4d = C4d deposition on PLD in plasma of donors with high anti-PEG titers; type: biochemical, human; settings: two donors with high anti-PEG titers; EGTA/Mg2+ 10 mM; sutimlimab 200 μg/ml
# [7] = EDTA 10 mM, sutimlimab 200 μg/ml, iptacopan 10 μM
molecule,measurement,setting,value
"CC(=O)c1nn(CC(=O)N2C[C@H](F)C[C@H]2C(=O)Nc2cccc(Br)n2)c2ccc(-c3cnc(C)nc3)cc12 [Danicopan, danicopan]",inhibition of C5a release,"human C5a release; mRNA LNPs, donor F46",less than 60%
same,inhibition of C5a release,"human C5a release; mRNA LNPs, donors F38 and M61",completely inhibited
same,"C5a IC50, in words","human C5a release; mRNA LNPs, sera from three healthy donors",low micromolar
same,IC50,"human C5a release; CLIO NWs, human serum",6.93 nM
same,IC50,"human C5a release; Onivyde, human serum",2580 nM
same,IC50,"human C5a release; SPIO NWs, human serum",6.97 nM
same,IC50,"human C5a release; mRNA LNPs, donor F38 (table line matched to Fig. 2C)",1290 nM
same,IC50,"human C5a release; mRNA LNPs, donor F46 (table line matched to Fig. 2C)",7980 nM
same,IC50,"human C5a release; mRNA LNPs, donor M61 (table line matched to Fig. 2C)",71.2 nM
same,inhibition of C3,C3 [1],less than 50%
same,inhibition of C3 opsonization in dog sera,C3 [2],considerably less effective
same,"inhibition in mouse serum, in words",C3 [3],poor inhibition
same,inhibition of C3 deposition,"human C3 deposition; PLD, inhibitor at 100 μM, human serum",less than 50%
same,IC50,human C3 deposition; CLIO NWs,10.8 µM
same,IC50,human C3 deposition; Onivyde,28.1 µM
same,IC50,human C3 deposition; SPIO NWs,0.417 µM
O=C(O)CN(CCN(CC(=O)O)CC(=O)O)CC(=O)O [EDTA],"inhibition of C3d deposition on PLD, in words",C3d,full inhibition
same,"C3 on PLD blocked, on average","C3 [4]; lepirudin plasma, 10 donors, CR2-CR1 10 nM, EDTA 10 mM",~67%
same,"inhibition of C3 opsonization of PLD, in words",C3 [4]; [7],only partially inhibited
"CCO[C@H]1CCN(Cc2c(OC)cc(C)c3[nH]ccc23)[C@H](c2ccc(C(=O)O)cc2)C1 [Iptacopan, iptacopan]",systolic and diastolic pressure after coinjection with SPIO NWs,Beagle dogs,prevents the drop in blood pressure; also recorded: restored
same,inhibition of C3 opsonization in dog sera,C3 [2],significant inhibition
same,dog C3 opsonization in the blood,dog C3,significantly decreased
same,C3 opsonization of NWs retrieved from plasma,mouse C3,significantly decreased
same,inhibition of uptake by granulocytes,"blood leukocytes; high-dose iptacopan 0.99 mg/kg, 60 min",significant inhibition
same,uptake of SPIO NWs by blood leukocytes,"blood leukocytes; iptacopan IV 0.21 mg/kg (low dose) and 0.99 mg/kg (high dose) with SPIO NWs 6.6 mg/kg, 60 min postinjection",inhibited uptake
same,"efficacy on uptake across donors, in words",[5],effective in some donors
same,"efficacy on uptake across donors, in words",[5]; listed as iptacopan,effective in three of five donors
same,reduction of SPIO NWs uptake (number of magnetic cells),[5]; the one donor with measurable uptake,~ 60%
same,number of magnetic granulocytes,granulocytes,significantly reduced
same,"inhibition of C3d deposition on PLD, in words",C3d,only partial activity
same,rat C3 opsonization of NWs blocked,rat C3,more than 90%
same,rearings after coinjection with NWs,Sprague-Dawley rats; low or high dose of iptacopan,significant increase in rearings; also recorded: significantly normalized rearing behavior
same,iptacopan administered intraperitoneally compared with IV,[6]; IP before SPIO NWs,equally effective
same,inhibition of uptake of SPIO NWs by monocytes and lymphocytes,[6]; iptacopan with NWs 10 mg Fe/kg,partial inhibition
same,"inhibition of C3 opsonization of PLD, in words",C3 [4]; [7],marginally effective
same,"inhibition of C3 opsonization of PLD, in words","C3 [4]; EDTA 10 mM, sutimlimab 200 μg/ml, iptacopan 10 μM, listed as iptacopan",minimal inhibition
CR1: human complement receptor 1 (soluble CR1 therapeutics),efficacy in animal species,C3 convertases,not effective
EGTA/Mg^2+,"inhibition of C4d deposition on PLD, in words",C4d,inhibited
same,"inhibition of C3d deposition on PLD, in words",C3d,full inhibition
same,"inhibition of C3 opsonization of PLD, in words",C3 [4]; [7],strong inhibition
PMX53,rearing behavior after coinjection with NWs,"Sprague-Dawley rats; PMX53 1 mg/kg IV, or 3 mg/kg IP + 1 mg/kg IV",did not restore; also recorded: not significantly increased
B1,"inhibition of C4d deposition on PLD, in words",C4d,does not inhibit
same,"inhibition of C3d deposition on PLD, in words",C3d,only partial activity
same,"inhibition of C3 deposition on PLD, in words","C3 [4]; lepirudin plasma, 10 donors, sutimlimab 200 μg/ml, iptacopan 10 μM",minimally effective
same,"inhibition of C3 opsonization of PLD, in words",C3 [4]; [7],marginal effectiveness; also recorded: minimal inhibition
